From patent publication US7601751B2, “Indole acetic acid acyl guanidines as β-secretase inhibitors” (Bristol-Myers Squibb Company, priority 2005, dated 2009)

What follows are compounds tested against T1, BACE1 enzyme (Homo sapiens, UniProt P56817) (assay: Radioligand displacement assay with a radiolabeled BACE inhibitor on HEK293-9B.A1 cell homogenate). Conditions: HEK293-9B.A1 cell homogenate overexpressing BACE1, 1 nM radioligand, pH 5.0, 1.5 hr at 25° C., read-out: Activity Rating (activity based on IC50 values).
T1 construct: The HEK293-9B.A1 cell line, which overexpresses the BACE1 enzyme, was derived from HEK293 cells; endogenous in cells; washed membrane pellet / cell homogenate
T1 sequence (P56817 46-501): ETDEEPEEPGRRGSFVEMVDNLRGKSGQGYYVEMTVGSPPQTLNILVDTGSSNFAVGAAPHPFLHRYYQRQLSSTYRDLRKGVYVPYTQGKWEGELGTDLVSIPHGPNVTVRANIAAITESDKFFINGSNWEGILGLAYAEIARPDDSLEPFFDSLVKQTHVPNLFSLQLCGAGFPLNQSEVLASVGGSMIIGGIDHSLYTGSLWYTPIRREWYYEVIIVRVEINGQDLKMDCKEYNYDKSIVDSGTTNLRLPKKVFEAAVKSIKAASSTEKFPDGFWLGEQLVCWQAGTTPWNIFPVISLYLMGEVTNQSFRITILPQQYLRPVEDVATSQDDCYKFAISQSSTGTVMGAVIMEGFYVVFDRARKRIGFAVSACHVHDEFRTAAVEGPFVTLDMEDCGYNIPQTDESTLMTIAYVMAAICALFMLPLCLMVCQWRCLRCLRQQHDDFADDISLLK
Format: binding
Experimental: Radioligand displacement assays with a radiolabeled BACE inhibitor (WO 2004 013098, compound 3, where the methoxy group is substituted for C(^3H)3) were carried out using standard methods (Keen, M. (1999) in Receptor Binding Techniques (Walker, J. M. ed) p. 106 Humana Press, Totowa, N.J.). The HEK293-9B.A1 cell line, which overexpresses the BACE1 enzyme, was derived from HEK293 cells (Simmons, N. L. (1990) A cultured human renal epithelioid cell line responsive to vasoactive intestinal peptide. Exp. Physiol. 75:309-19.) by RAGE™ (Harrington, J. J. et al. (2001) Creation of genome-wide protein expression libraries using random activation of gene expression. Nat. Biotechnol. 19:440-5; U.S. Pat. No. 6,410,266 and 6,361,972). T225 flask cultures of HEK293-9B.A1 were grown to 80% confluency in DMEM supplemented with 2 mM L-glutamine, 10 μg/ml penecillin, 10 μg/ml streptomycin, 3 μg/ml puromycin, 100 nM methotrexate, and 10% fetal bovine serun (Invitrogen, Carlsbad, Calif.), harvested, and resuspended at 2×10^8 cells per 10 ml of lysis buffer consisting of 50 mM HEPES pH 7.0 containing a protease inhibitor cocktail of AEBSF 104 μM, aprotinin 80 nM, leupeptin 2 μM, bestatin 4 μM, pepstatin A 1.5 μM, and E-64 1.4 μM (0.1% of protease inhibitor cocktail P8340, Sigma-Aldrich, St. Louis, Mo.) at 4° C. The resuspended cells were homogenized using a Polytron (Brinkman, Westbury, N.Y.) at setting 6 for 10 sec., then centrifuged at 48,000×g for 10 min. The resulting pellet was washed by repeating the resuspension, homogenization and centrifugation steps. The final pellet was resuspended in buffer at 4° C. to yield a total protein concentration of 5 mg/ml, then aliquots were frozen in liquid nitrogen for further storage at −70° C. Immediately before carrying out a binding assay, an aliquot of cell homogenate was thawed and diluted to a concentration of 100 μg/ml in assay buffer consisting of 50 mM HEPES pH 5.0 and 0.1% CHAPSO. Assays were initiated in polypropylene 96-well plates (Costar, Cambridge, Mass.) by the addition of 200 μl of cell homogenate to 50 μl of assay buffer containing 1 nM radioligand (WO 2004 013098, compound 3, where the methoxy group is substituted for C(^3H)3: 80 Ci/mMol) and various concentrations of unlabelled compounds, and incubated for 1.5 hr. at 25° C. Separation of bound from free radioligand was by filtration on GFF glass fiber filters (Innotech Biosystems International, Lansing, Mich.) using an Innotech cell harvester. Filters were washed three times with 0.3 ml of phosphate buffered saline pH 7.0 at 4° C. and assessed for radioactivity using a Wallac 1450 Microbeta liquid scintillation counter (PerkinElmer, Boston, Mass.). Ki values of competing compounds were derived through Cheng-Prussoff correction of IC50 values calculated using XLfit (IDBS, Guildford, UK).
In the case of `CC(=O)Nc1c(Cl)cc(CN/C(N)=N/C(=O)Cc2c[nH]c3cc(Br)ccc23)cc1Cl` [Example 1, N-(4-{N′-[2-(6-Bromo-1H-indol-3-yl)-acetyl]-guanidinomethyl}-2,6-dichloro-phenyl)-acetamide], the IC50 is reported as 100 to 1000 nM.
`COc1ccc2[nH]cc(CC(=O)/N=C(\N)NCc3cc(Cl)c(NC(C)=O)c(Cl)c3)c2c1` [Example 2, N-(2,6-Dichloro-4-{N′-[2-(5-methoxy-1H-indol-3-yl)-acetyl]-guanidinomethyl}-phenyl)-acetamide] showed an IC50 of 100 to 1000 nM.
For `COc1ccc2[nH]cc(CC(=O)/N=C(\N)NCc3cc(Cl)cc(Cl)c3)c2c1` [Example 3, N-(3,5-Dichloro-benzyl)-N′-[2-(5-methoxy-1H-indol-3-yl)-acetyl]-guanidine], the IC50 was > 1000 nM.
With `N/C(=N\C(=O)Cc1c[nH]c2ccc(F)cc12)NCc1cc(Cl)cc(Cl)c1` [Example 4, N-(3,5-Dichloro-benzyl)-N′-[2-(5-fluoro-1H-indol-3-yl)-acetyl]-guanidine] the IC50 was > 1000 nM.
In the case of `Cn1cc(CC(=O)/N=C(\N)NCc2cc(Cl)c(N)c(Cl)c2)c2ccccc21` [Example 5, N-((4-amino-3,5-dichlorobenzylamino)(amino)methylene)-2-(1-methyl-1H-indol-3-yl)acetamide], the IC50 is reported as > 1000 nM.
In the case of `N/C(=N\C(=O)Cc1cn(Cc2ccc(F)cc2)c2ccccc12)NCc1cc(Cl)c(N)c(Cl)c1` [Example 6, N-((4-amino-3,5-dichlorobenzylamino)(amino)methylene)-2-(1-(4-fluorobenzyl)-1H-indol-3-yl)acetamide], the IC50 is reported as > 1000 nM.
For `COc1ccc2[nH]cc(CC(=O)/N=C(\N)NCc3cc(Cl)c(N)c(Cl)c3)c2c1` [Example 7, N-((4-amino-3,5-dichlorobenzylamino)(amino)methylene)-2-(5-methoxy-1H-indol-3-yl)acetamide], the IC50 was > 1000 nM.
For `CC(C(=O)/N=C(\N)NCc1cc(Cl)c(N)c(Cl)c1)c1c[nH]c2ccccc12` (stereo not shown) [Example 8, N-((4-amino-3,5-dichlorobenzylamino)(amino)methylene)-2-(1H-indol-3-yl)propanamide], the IC50 was > 1000 nM.
`COc1ccc2[nH]cc(CC(=O)/N=C(\N)NCc3cc(C)c(NC(C)=O)c(Cl)c3)c2c1` [Example 9, N-(2-Chloro-4-{N′-[2-(5-methoxy-1H-indol-3-yl)-acetyl]-guanidinomethyl}-6-methyl-phenyl)-acetamide] gave an IC50 of 100 to 1000 nM.
In the case of `COc1ccc2[nH]c(C)c(CC(=O)/N=C(\N)NCc3cc(Cl)c(NC(C)=O)c(Cl)c3)c2c1` [Example 10, N-(2,6-Dichloro-4-{N′-[2-(5-methoxy-2-methyl-1H-indol-3-yl)-acetyl]-guanidinomethyl}-phenyl)-acetamide], the IC50 is reported as 100 to 1000 nM.
`CC(=O)Nc1c(Cl)cc(CN/C(N)=N/C(=O)Cc2c(C)[nH]c3ccccc23)cc1Cl` [Example 11, N-(2,6-Dichloro-4-{N′-[2-(2-methyl-1H-indol-3-yl)-acetyl]-guanidinomethyl}-phenyl)-acetamide] gave an IC50 of 100 to 1000 nM.
Work on `CC(=O)Nc1c(Cl)cc(CN/C(N)=N/C(=O)Cc2c[nH]c3ccc(F)cc23)cc1Cl` [Example 12, N-(2,6-Dichloro-4-{N′-[2-(5-fluoro-1H-indol-3-yl)-acetyl]-guanidinomethyl}-phenyl)-acetamide] yielded an IC50 of 100 to 1000 nM.
`CC(=O)Nc1c(Cl)cc(CN/C(N)=N/C(=O)Cc2c[nH]c3ccc(OCc4ccccc4)cc23)cc1Cl` [Example 13, N-(4-{N′-[2-(5-Benzyloxy-1H-indol-3-yl)-acetyl]-guanidinomethyl}-2,6-dichloro-phenyl)-acetamide] was tested, and the IC50 was > 1000 nM.
`CC(=O)Nc1c(Cl)cc(CN/C(N)=N/C(=O)Cc2c[nH]c3ccc(O)cc23)cc1Cl` [Example 14, N-(2,6-Dichloro-4-{N′-[2-(5-hydroxy-1H-indol-3-yl)-acetyl]-guanidinomethyl}-phenyl)-acetamide] showed an IC50 of 100 to 1000 nM.
In the case of `CC(=O)Nc1c(Cl)cc(CN/C(N)=N/C(=O)Cc2c[nH]c3cc(OCc4ccccc4)ccc23)cc1Cl` [Example 15, N-(4-{N′-[2-(6-Benzyloxy-1H-indol-3-yl)-acetyl]-guanidinomethyl}-2,6-dichloro-phenyl)-acetamide], the IC50 is reported as 100 to 1000 nM.
Work on `CC(=O)Nc1c(Cl)cc(CN/C(N)=N/C(=O)Cc2c[nH]c3cc(F)ccc23)cc1Cl` [Example 16, N-(2,6-Dichloro-4-{N′-[2-(6-fluoro-1H-indol-3-yl)-acetyl]-guanidinomethyl}-phenyl)-acetamide] yielded an IC50 of 100 to 1000 nM.
With `N/C(=N\C(=O)Cc1c[nH]c2ccc(Br)cc12)NCc1cc(Cl)c(N)c(Cl)c1` [Example 17, N-(4-Amino-3,5-dichloro-benzyl)-N′-[2-(5-bromo-1H-indol-3-yl)-acetyl]-guanidine] the IC50 was > 1000 nM.
With `CN1CCN(c2ccc(CN/C(N)=N/C(=O)Cc3c[nH]c4ccc(Br)cc34)cc2)CC1` [Example 18, N-[2-(5-Bromo-1H-indol-3-yl)-acetyl]-N′-[4-(4-methyl-piperazin-1-yl)-benzyl]-guanidine] the IC50 was > 1000 nM.
For `CN1CCN(c2ccc(CN/C(N)=N/C(=O)Cc3c[nH]c4ccc(Br)cc34)cc2Cl)CC1` [Example 19, N-[2-(5-Bromo-1H-indol-3-yl)-acetyl]-N′-[3-chloro-4-(4-methyl-piperazin-1-yl)-benzyl]-guanidine], the IC50 was > 1000 nM.
For `CC(=O)Nc1c(Cl)cc(CN/C(N)=N/C(=O)Cc2c[nH]c3ccc(Br)cc23)cc1Cl` [Example 20, N-(4-{N′-[2-(5-Bromo-1H-indol-3-yl)-acetyl]-guanidinomethyl}-2,6-dichloro-phenyl)-acetamide], the IC50 was < 100 nM.
`CC(=O)Nc1c(Cl)cc(CN/C(N)=N/C(=O)Cc2c(C)[nH]c3ccc(F)cc23)cc1Cl` [Example 21] was tested, and the IC50 was 100 to 1000 nM.
`CC(=O)Nc1c(Cl)cc(CN/C(N)=N/C(=O)Cc2c(C)[nH]c3c(F)cccc23)cc1Cl` [Example 22, N-(2,6-Dichloro-4-{N′-[2-(7-fluoro-2-methyl-1H-indol-3-yl)-acetyl]-guanidinomethyl}-phenyl)-acetamide] was tested, and the IC50 was 100 to 1000 nM.
In the case of `CC(=O)Nc1c(Cl)cc(CN/C(N)=N/C(=O)Cc2c[nH]c3ccc(C#N)cc23)cc1Cl` [Example 23, N-(4-{N′-[2-(5-Cyano-1H-indol-3-yl)-acetyl]-guanidinomethyl}-2,6-dichloro-phenyl)-acetamide], the IC50 is reported as < 100 nM.
`CC(=O)Nc1c(Cl)cc(CN/C(N)=N/C(=O)Cc2c(C(=O)NC(C)(C)C)[nH]c3ccc(Br)cc23)cc1Cl` [Example 24, 3-{2-[N′-(4-Acetylamino-3,5-dichloro-benzyl)-guanidino]-2-oxo-ethyl}-5-bromo-1H-indole-2-carboxylic acid tert-butylamide] was tested, and the IC50 was < 100 nM.
For `CC(=O)Nc1c(Cl)cc(CN/C(N)=N/C(=O)Cc2c(C#N)[nH]c3ccc(Br)cc23)cc1Cl` [Example 25, N-(4-{N′-[2-(5-Bromo-2-cyano-1H-indol-3-yl)-acetyl]-guanidinomethyl}-2,6-dichloro-phenyl)-acetamide], the IC50 was < 100 nM.
